The values below come from US11951100B2, “Formulations of RBP4 inhibitors and methods of use” (Belite Bio, LLC, priority 2019, dated 2024).

Each structure is given as a SMILES string. Converted amounts (≈) assume the structure as drawn.

The subject of data set [1] is Abcd4/rdh8 double knockout mice. Kind of data set: Abcd4/rdh8 double knockout mouse model of macular degeneration. Type of data set: in vivo. The text has this: FIG. 2 is a graph of bisretinoid A2E (pmol in the eye) and RBP4 (serum) levels for ABCA4−/−RDH8−/− mice either untreated, treated with vehicle, or treated with Compound 1.
FIG. 3 is a graph of outer nuclear layer (ONL) thickness (μm) as a function of distance (μm) from the optic nerve (ONH). ONL is the cell layer consisting of photoreceptor cell bodies (rods and cones). Dry AMD or STGD is often associated with thinning of the ONL and the loss of photoreceptor cells, indicating macular degeneration.
Abcd4/rdh8 double knockout mice were either untreated or treated with Compound 1. Wild type C57BL/6J mice were also used as a normal control. […] (FIG. 2). Diseases such as dry AMD or Stargardt are associated with thinning of the outer nuclear layer (ONL) of the eye and the loss of photoreceptor cells, indicating macular degeneration.

The subject of the next data set is Caco-2 monolayers. In words: Permeability through Caco-2 monolayers. Type of data set: in vitro ADME. Here is the method:
(§1) Several biopharmaceutically relevant parameters of the API (Compound 1) were obtained for the API. […] Based on these two biopharmaceutical parameters, this compound is possibly a BCS Class II. Solubility enhancement is critical for bioavailability of the API for dosing. Therefore, to overcome the limitation from solubility, several experiments were conducted to assess various solubility enhancement approaches utilized in formulation development
Background: Caco-2 cells form a polarised layer with tight junctions and transporters.

Data set [2] in a line: Saturated solubility at 80° C., visually estimated. Type of data set: physicochemical. The note with it: Capmul MCM.
The nature of data set [3]: MDSC of spray dried solid dispersions. Type of data set: physicochemical. Particulars: n = 3. The protocol:
Samples of the solid dispersions containing Compound 1 were analyzed by Differential Scanning Calorimetry using a TA Discovery DSC2500 with RCS90 chiller according to standard instrument procedures provided by manufacturer. Parameters used for the analysis are shown below in Table 9. Three replicates of the experiment were run for each dispersion.

Data set [4] is described as follows: Non-sink dissolution of unmicronized and micronized Form C in SLS in water. Type of data set: physicochemical. The note with it: aqueous with cosolvent or surfactant or cyclodextrin. The text has this: The enhancement in dissolution rate from micronized samples was likely due to the increase in surface area after micronization supported by microscopic images and particle sizing.

Data set [5] in a line: Chemical stability at elevated temperatures (DSC heating, HPLC). Type of data set: physicochemical. Particulars: Form C batch heated in DSC to a variety of temperatures and holding times. Here is the method:
The API was heated to a variety of temperatures with several holding time periods in DSC. The resulted solids in DSC pan were extracted with DMSO. The solutions of API were prepared and injected into HPLC for determination of assay and related substances. […] One of possible solution to the API degradation in hot-melt extrusion might be the addition of a plasticizer which may lower the process temperature for maintaining chemical integrity of the API.

The nature of data set [6]: Melt-quench modulated DSC of Compound 1. Type of data set: physicochemical. The protocol: A sample of Compound 1 was analyzed by Modulated Differential Scanning Calorimetry using a TA Discovery DSC2500 with RCS90 chiller according to standard instrument procedures provided by manufacturer. Parameters used for the analysis are shown below in Table 4. Two replicates of the experiment were run with reproducible results. The resulting thermogram, shown in FIG. 10C, indicates a glass transition temperature (Tg) of about 93° C., a crystallization temperature (Tc) of about 136° C., and a Tm/Tg ratio of 1.37. The Tm/Tg ratio of 1.37 is indicative of moderate physical stability. Without being bound by theory, the Te observed quickly after Compound 1 entering a rubbery state was indicative of a propensity to crystallize. [table]

Data set [7] is described as follows: Log D7.4, shake-flask partitioning. Type of data set: physicochemical. Particulars: pH 7.4, shake-flask (Pion, Inc.). Here is the method:
as §1

The nature of data set [8]: DSC of crystalline Compound 1. Particulars: ramp 10.0° C./min, 35° C.-275° C. Type of data set: physicochemical. Here is the method:
A sample of Compound 1 was analyzed by Differential Scanning Calorimetry using a TA Discovery DSC2500 with RCS90 chiller according to standard instrument procedures provided by manufacturer. Parameters used for the analysis are shown below in Table 3. Two replicates of the experiment were run with reproducible results. The resulting thermogram, shown in FIG. 10B, indicated a melting temperature (Tm) of Compound 1 of about 229° C. and no degradation up to 275° C.

Data set [9] can be described thus: Solvent shift assay in FaSSIF. Type of data set: physicochemical. Here is the method: A solvent shift assay was performed in order to assess the effect of polymer excipients in improving supersaturation and sustainment in biorelevant media. Compound 1 was dissolved in DMSO to generate concentrated dissolved stock solution at 25 mg/mL. Stock API solution was then added to Fasted State Simulated Intestinal Fluid (FaSSIF) solution or FaSSIF solution containing predissolved polymer excipients to final concentration of compound 1 at 0.5 mg/mL. Ratios of Compound 1:polymer excipient in the final solution were either 20:80 or 40:60 (w/w). Samples were analyzed by HPLC to assess dynamic solubility of Compound 1 at various time points over a one hour period.

Data set [10] is described as follows: Non-sink dissolution, 0.1N HCl then FaSSIF. Type of data set: physicochemical. The protocol: Sample of solid dispersions containing Compound 1 were analyzed in a non-sink dissolution experiment. Dispersion samples and neat Compound 1 were suspended in 0.1N HCl media at a concentration of 1000 ug/mL Compound 1. Concentration of each sample was then measured by centrifugation to pellet undissolved material, and an aliquot of the supernatant was assessed by HPLC for concentration. Material was then agitated in a Distek 2100 C Dissolution apparatus, USP Type II. Instrument was operated according to standard instrument procedures provided by manufacturer. Parameters used for the experiment are shown below in Table 11. After 30 minutes, the media was modulated to FaSSIF by adding equivalent volume of FaSSIF buffer with bile salts, bringing the theoretical concentration of compound 1 to 500 μg/mL. Dissolved concentration of Compound 1 in each sample was then assessed periodically by HPLC. […] These resulting values can be seen in Table 12 below.

[11] abbreviates: treated vs untreated Abcd4/rdh8 double knockout mice.

Usually solubility stands for the concentration that dissolves in the medium under given conditions. As usually defined, the logD is the decadic logarithm of the distribution of all forms, ionised or not, between an organic phase and buffer at a given pH. A low value points to a more hydrophilic compound. For `CC(=O)N1CCc2c(C(=O)N3CCC(c4ccc(F)c(F)c4C(F)(F)F)CC3)n[nH]c2C1` [Compound 1, 1-(3-(4-(3,4-difluoro-2-(trifluoromethyl)phenyl)piperidine-1-carbonyl)-1,4,5,7-tetrahydro-6H-pyrazolo[3,4-c]pyridin-6-yl)ethan-1-one], the “reduction in bisretinoid accumulation” value in data set [1] (bisretinoid A2E in the eye, ABCA4−/−RDH8−/− mice treated with Compound 1, p=0.003, unpaired t-test) turned out to be 80%. Also, in [1] (diseased group treated with Compound 1 vs diseased group), the “outer nuclear layer (ONL) thickness” value is recorded as “preserved”. Moreover, in data set [1] (setting [11]), the “levels of A2E in the retina” value is given as “significantly lower” and the “levels of RBP4 in serum” value is listed as “lower”. Moreover, the efflux result with Caco-2 monolayers (apical-to-basolateral and basolateral-to-apical) was “no significant efflux”. For the same compound, the absorption potential classification entry in the data set with Caco-2 monolayers (apical-to-basolateral and basolateral-to-apical (Absorption Systems)) was “high”. Further, the BCS classification entry in the data set with Caco-2 monolayers (based on Log D7.4 and Caco-2 data, possibly) is “BCS Class II”. Further, the solubility in data set [2] (80 °C, oil or lipid, thermodynamic from solid) is 16000 µg/mL (≈ 35100 µM). In data set [2] (listed as API), the saturated solubility is 20000 µg/mL. Besides, in [3], the Tg came out at 93.4 °C and the “Tg Onset” value worked out at 89.4 °C. The solubility in data set [4] (0.366% SLS in water, read-out: nominal solubility of the API) is ~460 µg/mL (≈ 1010 µM). Further, the solubility in data set [4] (0.36% SLS in water, calculated from SLS concentration vs solubility profile, read-out: solubility of the API) is 445 µg/mL (≈ 974 µM). In data set [5], the “chemical stability at elevated temperatures, HPLC related substances” value was “impurity (with RRT=0.8 in HPLC) were present in all prepared samples except the control sample”. The Tm/Tg ratio in data set [6] (indicative of moderate physical stability) came to 1.37. For the same compound, in data set [6] (melt-quenched Compound 1), the “crystallization temperature (Tc)” value is “about 136 °C” and the “glass transition temperature (Tg)” value is “about 93 °C”. Also, in data set [7], the logD was determined as 3.23. In [8], the “no degradation up to (DSC)” value turned out to be 275 °C. Besides, in data set [9] (0.5 mg/mL Compound 1 from DMSO stock into FaSSIF, one hour), the “Total Drug AUC FaSSIF” value turned out to be 13100 min*μgA/mL. For the same compound, the “Total Drug C60” value in data set [9] (FaSSIF, 60 min) worked out at 91.3 μgA/mL. The “AUC 5-180 IB” value in data set [10] (FaSSIF) worked out at 1300 min*μgA/mL. Further, the C210 in data set [10] (final concentration) amounted to 7.1 μgA/mL.
